Assay results published in US10968178B2, “IP6K inhibitors” (TAKEDA PHARMACEUTICAL COMPANY LIMITED, priority 2017, dated 2021).

Assays:
Assay type in all cases: biochemical
human IP6K3 = target: T1, human IP6K3 (Homo sapiens, UniProt Q96PC2); assay: IP6K enzyme inhibitory assay (ADP-Glo Kinase Assay), human IP6K3; details: compound concentration 0.1 μM; read-out: ADP-Glo method inhibitory rate (%) human IP6K3
T1 construct: human IP6K3 (1-410) gene; made in house; host or cells: BL21 (DE3) Escherichia coli
T1 sequence (Q96PC2 1-410): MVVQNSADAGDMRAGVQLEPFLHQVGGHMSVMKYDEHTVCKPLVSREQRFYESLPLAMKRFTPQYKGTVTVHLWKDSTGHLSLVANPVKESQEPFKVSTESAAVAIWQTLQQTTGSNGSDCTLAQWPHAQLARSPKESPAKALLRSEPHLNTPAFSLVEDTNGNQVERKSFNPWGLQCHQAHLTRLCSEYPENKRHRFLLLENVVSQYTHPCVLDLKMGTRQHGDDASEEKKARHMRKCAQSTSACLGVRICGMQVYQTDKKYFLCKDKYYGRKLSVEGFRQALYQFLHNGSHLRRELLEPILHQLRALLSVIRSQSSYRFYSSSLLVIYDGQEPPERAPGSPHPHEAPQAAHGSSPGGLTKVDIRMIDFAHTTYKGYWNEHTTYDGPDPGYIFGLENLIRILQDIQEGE
Protocol: (§1) IP6K Enzyme Inhibitory Assay
(§2) Human IP6K3 enzyme was prepared by transducing human IP6K3 (1-410) gene into BL21 (DE3) Escherichia coli and purifying by Ni-NTA (nickel-nitrilotriacetic acid) affinity column. […] The enzymes were used after preservation at −70° C. The IP6K enzyme inhibitory activity of the test compound was measured by the following experiment method and using ADP-Glo™ Kinase Assay (manufactured by Promega). A test compound diluted with an assay buffer (20 mM HEPES (pH 7.5), 6 mM MgCl2, 0.01% Tween-20, 1 mM DTT) was first added by 2 μL to a 384 well plate. […] The IP6K enzyme solution diluted with the assay buffer was added by 2 μL to start the enzyme reaction. Incubation was performed at room temperature for a given time (120 min for rat IP6K3 alone, 60 min for others). After incubation at room temperature, ADP-Glo solution prepared according to the protocol of Promega was added by 3 μL to the 384 well plate and reacted at room temperature for 30 min. Thereafter, Kinase-Detection solution was added by 6 μL to the 384 well plate and reacted at room temperature for 60 min. After the reaction, the luminescence intensity was measured by a plate reader Envision (manufactured by PerkinElmer).

human IP6K1 = target: T2, human IP6K1 (Homo sapiens, UniProt Q92551); assay: IP6K enzyme inhibitory assay (ADP-Glo Kinase Assay), human IP6K1; details: compound concentration 0.1 μM; read-out: ADP-Glo method inhibitory rate (%) human IP6K1
T2 construct: human IP6K1 (1-441) gene; GST; made in house; host or cells: Sf-9 insect cells
Protocol: as §1, §2

human IP6K2 = target: T3, human IP6K2 (Homo sapiens, UniProt Q9UHH9); assay: IP6K enzyme inhibitory assay (ADP-Glo Kinase Assay), human IP6K2; details: compound concentration 0.1 μM; read-out: ADP-Glo method inhibitory rate (%) human IP6K2
T3 construct: human IP6K2 (1-426) gene; GST; made in house; host or cells: Sf-9 insect cells
T3 sequence (Q9UHH9 1-426): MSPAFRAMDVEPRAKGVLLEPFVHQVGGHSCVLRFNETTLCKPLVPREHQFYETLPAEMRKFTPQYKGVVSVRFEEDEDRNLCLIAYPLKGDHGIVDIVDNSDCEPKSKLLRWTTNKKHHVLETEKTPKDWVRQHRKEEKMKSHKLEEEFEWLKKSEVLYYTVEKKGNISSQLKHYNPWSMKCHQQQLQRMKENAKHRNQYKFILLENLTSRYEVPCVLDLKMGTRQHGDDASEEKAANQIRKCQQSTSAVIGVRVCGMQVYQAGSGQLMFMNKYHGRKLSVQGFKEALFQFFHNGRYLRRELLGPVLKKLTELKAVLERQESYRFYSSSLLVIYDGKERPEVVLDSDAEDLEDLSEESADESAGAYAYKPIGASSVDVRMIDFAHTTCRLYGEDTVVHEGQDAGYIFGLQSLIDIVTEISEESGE
Protocol: as §1, §2

T2 sequence (Q92551 whole entry): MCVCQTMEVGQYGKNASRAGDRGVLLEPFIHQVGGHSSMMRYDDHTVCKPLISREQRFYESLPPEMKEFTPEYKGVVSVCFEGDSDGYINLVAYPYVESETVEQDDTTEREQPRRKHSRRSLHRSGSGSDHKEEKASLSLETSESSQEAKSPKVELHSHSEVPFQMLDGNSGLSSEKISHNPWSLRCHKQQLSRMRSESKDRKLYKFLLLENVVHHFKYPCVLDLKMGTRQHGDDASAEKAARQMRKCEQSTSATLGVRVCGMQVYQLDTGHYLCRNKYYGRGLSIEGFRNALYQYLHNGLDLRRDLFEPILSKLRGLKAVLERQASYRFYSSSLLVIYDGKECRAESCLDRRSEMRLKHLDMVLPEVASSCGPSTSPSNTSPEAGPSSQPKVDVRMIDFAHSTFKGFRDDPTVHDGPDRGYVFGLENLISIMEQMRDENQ

Row | SMILES | inhibition at 0.1 µM (human IP6K3) [%] | inhibition at 0.1 µM (human IP6K1) [%] | inhibition at 0.1 µM (human IP6K2) [%]
1 | O=C(O)c1ccc2c(c1)[C@]1(CC[C@@H](Oc3ncc(F)cc3F)CC1)C(=O)N2 [Example 4, (1r,4r)-4-((3,5-difluoropyridin-2-yl)oxy)-2′-oxo-1′,2′-dihydrospiro[cyclohexane-1,3′-indole]-5′-carboxylic acid] | 99 | 66 | 79
2 | O=C(O)c1ccc2c(n1)[C@]1(CC[C@@H](Oc3ncc(C(F)(F)F)cc3Cl)CC1)C(=O)N2 [Example 105, (1r,4r)-4-((3-chloro-5-(trifluoromethyl)pyridin-2-yl)oxy)-2′-oxo-1′,2′-dihydrospiro[cyclohexane-1,3′-pyrrolo[3,2-b]pyridine]-5′-carboxylic acid] | 95 | 86 | 94
3 | Cc1cc(Cl)cnc1O[C@H]1CC[C@@]2(CC1)C(=O)Nc1ccc(C(=O)O)nc12 [Example 17, (1r,4r)-4-((5-chloro-3-methylpyridin-2-yl)oxy)-2′-oxo-1′,2′-dihydrospiro[cyclohexane-1,3′-pyrrolo[3,2-b]pyridine]-5′-carboxylic acid] | 93 | 92 | 91
4 | N#Cc1ccc(O[C@H]2CC[C@@]3(CC2)C(=O)Nc2ccc(C(=O)O)cc23)cc1Cl [Example 73, (1r,4r)-4-(3-chloro-4-cyanophenoxy)-2′-oxo-1′,2′-dihydrospiro[cyclohexane-1,3′-indole]-5′-carboxylic acid] | 91 | 98 | 97
5 | Cc1ccccc1O[C@H]1CC[C@@]2(CC1)C(=O)Nc1ccc(C(=O)O)cc12 [Example 41, (1r,4r)-4-(2-methylphenoxy)-2′-oxo-1′,2′-dihydrospiro[cyclohexane-1,3′-indole]-5′-carboxylic acid] | 98 | 93 | 93
6 | O=C(O)c1ccc2c(n1)[C@]1(CC[C@H](Oc3ccccc3Cl)CC1)C(=O)N2 [Example 85, (1s,4s)-4-(2-chlorophenoxy)-2′-oxo-1′,2′-dihydrospiro[cyclohexane-1,3′-pyrrolo[3,2-b]pyridine]-5′-carboxylic acid] | 95 | 81 | 71
7 | O=C(O)c1ccc2c(n1)[C@]1(CC[C@@H](Oc3ccc(F)cc3F)CC1)C(=O)N2 [Example 91, (1r,4r)-4-(2,4-difluorophenoxy)-2′-oxo-1′,2′-dihydrospiro[cyclohexane-1,3′-pyrrolo[3,2-b]pyridine]-5′-carboxylic acid] | 79 | 69 | 60
8 | Cc1cc(C)c(O[C@H]2CC[C@@]3(CC2)C(=O)Nc2ccc(C(=O)O)cc23)cn1 [Example 36, (1r,4r)-4-((4,6-dimethylpyridin-3-yl)oxy)-2′-oxo-1′,2′-dihydrospiro[cyclohexane-1,3′-indole]-5′-carboxylic acid] | 95 | 72 | 92
9 | COc1cc(Cl)ccc1O[C@H]1CC[C@@]2(CC1)C(=O)Nc1ccc(C(=O)O)cc12 [Example 82, (1r,4r)-4-(4-chloro-2-methoxyphenoxy)-2′-oxo-1′,2′-dihydrospiro[cyclohexane-1,3′-indole]-5′-carboxylic acid] | 99 | 98 | 101
10 | O=C(O)c1ccc2c(c1)[C@]1(CC[C@@H](Oc3cc(F)cc(C(F)(F)F)c3)CC1)C(=O)N2 [Example 76, (1r,4r)-4-(3-fluoro-5-(trifluoromethyl)phenoxy)-2′-oxo-1′,2′-dihydrospiro[cyclohexane-1,3′-indole]-5′-carboxylic acid] | 86 | 81 | 86
11 | O=C(O)c1ccc2c(c1)[C@]1(CC[C@@H](Oc3ccccc3C(F)(F)F)CC1)C(=O)N2 [Example 74, (1r,4r)-2′-oxo-4-(2-(trifluoromethyl)phenoxy)-1′,2′-dihydrospiro[cyclohexane-1,3′-indole]-5′-carboxylic acid] | 92 | 93 | 92
12 | O=C(O)c1ccc2c(c1)[C@]1(CC[C@@H](Oc3ccc(F)c(Cl)c3)CC1)C(=O)N2 [Example 67, (1r,4r)-4-(3-chloro-4-fluorophenoxy)-2′-oxo-1′,2′-dihydrospiro[cyclohexane-1,3′-indole]-5′-carboxylic acid] | 97 | 93 | 98
13 | O=C(O)c1ccc2c(c1)[C@]1(CC[C@@H](Oc3ncc(C4CC4)cc3C(F)(F)F)CC1)C(=O)N2 [Example 31, (1r,4r)-4-((5-cyclopropyl-3-(trifluoromethyl)pyridin-2-yl)oxy)-2′-oxo-1′,2′-dihydrospiro[cyclohexane-1,3′-indole]-5′-carboxylic acid] | 100 | 101 | 101
14 | O=C(O)c1ccc2c(n1)[C@]1(CC[C@@H](Oc3ncc(C4CC4)cc3Cl)CC1)C(=O)N2 [Example 16, (1r,4r)-4-((3-chloro-5-cyclopropylpyridin-2-yl)oxy)-2′-oxo-1′,2′-dihydrospiro[cyclohexane-1,3′-pyrrolo[3,2-b]pyridine]-5′-carboxylic acid] | 98 | 99 | 89
15 | O=C(O)c1ccc2c(n1)[C@]1(CC[C@@H](Oc3c(F)cc(Cl)cc3F)CC1)C(=O)N2 [Example 93, (1r,4r)-4-(4-chloro-2,6-difluorophenoxy)-2′-oxo-1′,2′-dihydrospiro[cyclohexane-1,3′-pyrrolo[3,2-b]pyridine]-5′-carboxylic acid] | 101 | 92 | 96
16 | Cc1cc(Cl)cc(C)c1O[C@H]1CC[C@@]2(CC1)C(=O)Nc1ccc(C(=O)O)nc12 [Example 94, (1r,4r)-4-(4-chloro-2,6-dimethylphenoxy)-2′-oxo-1′,2′-dihydrospiro[cyclohexane-1,3′-pyrrolo[3,2-b]pyridine]-5′-carboxylic acid] | 101 | 91 | 97
17 | O=C(O)c1ccc2c(c1)[C@]1(CC[C@@H](Oc3cc(OCc4ccccc4)ccn3)CC1)C(=O)N2 [Example 30, (1r,4r)-4-((4-(benzyloxy)pyridin-2-yl)oxy)-2′-oxo-1′,2′-dihydrospiro[cyclohexane-1,3′-indole]-5′-carboxylic acid] | 97 | 81 | 84
18 | O=C(O)c1ccc2c(c1)[C@]1(CC[C@@H](Oc3ccccc3Cl)CC1)C(=O)N2 [Example 12, (1r,4r)-4-(2-chlorophenoxy)-2′-oxo-1′,2′-dihydrospiro[cyclohexane-1,3′-indole]-5′-carboxylic acid] | 101 | 95 | 97
19 | O=C(O)c1ccc2c(c1)[C@]1(CC[C@@H](Oc3ccc(Cl)c(F)c3)CC1)C(=O)N2 [Example 69, (1r,4r)-4-(4-chloro-3-fluorophenoxy)-2′-oxo-1′,2′-dihydrospiro[cyclohexane-1,3′-indole]-5′-carboxylic acid] | 96 | 100 | 100
20 | Cc1ccc(C(F)(F)F)c(O[C@H]2CC[C@@]3(CC2)C(=O)Nc2ccc(C(=O)O)nc23)n1 [Example 18, (1r,4r)-4-((6-methyl-3-(trifluoromethyl)pyridin-2-yl)oxy)-2′-oxo-1′,2′-dihydrospiro[cyclohexane-1,3′-pyrrolo[3,2-b]pyridine]-5′-carboxylic acid] | 77 | 54 | 62
